US9394305B2, “Substituted imidazo[1,2-a]pyridine compounds as tropomyosin receptor kinase a (TrkA) inhibitors” (Dr. Reddy's Laboratories Ltd., priority 2014, dated 2016)

These molecules were tested against T1, TrkA kinase (Homo sapiens, UniProt P04629) (assay: In vitro TrkA inhibitory activity using TR-FRET assay). Conditions: 5 ng TrkA, 500 μM ATP, values given as bins, read-out: TrkA inhibition in-vitro IC50.
T1 construct: purchased Upstate, USA
Type: biochemical
Protocol: Compounds were screened in the TR-FRET assay with TrkA kinase. 5 ng of TrkA [Upstate, USA] kinase was used for assay. The compound was incubated with the kinase for 30 minutes at 20-35° C. After the incubation, substrate mix [40 nM Ultra light poly GT (Perkin Elmer, USA) and 500 μM ATP] was added. The above reaction was stopped by the addition of 40 mM EDTA after 30 minutes. The Eu-labelled antiphospho-tyrosine antibody [Perkin Elmer, USA] was added at 0.5 nM and the fluorescence emission at 615 nm/665 nm [excitation at 340 nm] was measured. The compounds were initially screened at 100 nM, 1 μM and 10 μM concentrations. The potent compounds with >25% inhibition at 1 μM of TrkA were taken for the full dose response studies. The final DMSO concentration in the assay was […]. For IC50 determination, ⅓^rd serial dilution was made from the 20 mM DMSO stock solution. 2 μl of these were transferred to the test wells containing 20 μl reaction mixture [Total reaction volume 22 μl]. The fluorescence was measured in Perkin Elmer Wallac 1420 Multilabel Counter Victor 3. The IC50 was determined by fitting the dose response data to a sigmoidal curve fitting equation using GraphPad Prism software version 5.

T1 sequence (P04629 33-796): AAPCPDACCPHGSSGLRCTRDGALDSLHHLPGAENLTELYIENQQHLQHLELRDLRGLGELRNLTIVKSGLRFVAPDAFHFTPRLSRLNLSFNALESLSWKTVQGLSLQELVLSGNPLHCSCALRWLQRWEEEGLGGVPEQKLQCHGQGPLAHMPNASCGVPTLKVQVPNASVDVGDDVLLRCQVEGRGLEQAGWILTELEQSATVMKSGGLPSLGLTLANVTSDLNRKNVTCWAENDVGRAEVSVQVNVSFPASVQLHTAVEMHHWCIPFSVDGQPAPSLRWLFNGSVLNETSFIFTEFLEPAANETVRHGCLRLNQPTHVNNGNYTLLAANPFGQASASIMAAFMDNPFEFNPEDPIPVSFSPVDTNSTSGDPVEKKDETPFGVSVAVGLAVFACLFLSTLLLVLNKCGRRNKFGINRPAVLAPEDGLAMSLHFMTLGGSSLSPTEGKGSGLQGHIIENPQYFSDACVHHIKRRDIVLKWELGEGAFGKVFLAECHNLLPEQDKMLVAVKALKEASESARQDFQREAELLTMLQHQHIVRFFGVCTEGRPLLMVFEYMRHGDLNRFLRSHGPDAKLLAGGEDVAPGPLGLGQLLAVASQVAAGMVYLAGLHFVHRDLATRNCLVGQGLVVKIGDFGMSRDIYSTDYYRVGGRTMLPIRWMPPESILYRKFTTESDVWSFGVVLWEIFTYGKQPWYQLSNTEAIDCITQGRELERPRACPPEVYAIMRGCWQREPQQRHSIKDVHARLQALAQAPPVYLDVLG

| IC50 | Structure (SMILES) |
| --- | --- |
| ≤ 50 nM | CCN(CCF)S(=O)(=O)NC(=O)c1cnc2ccc(N3C[C@@H](F)C[C@@H]3c3cc(F)ccc3O[C@@H]3CCOC3)cn12 [Example 75, N—(N-ethyl-N-(2-fluoroethyl)sulfamoyl)-6-((2R,4S)-4-fluoro-2-(5-fluoro-2-(((R)-tetrahydrofuran-3-yl)oxy)phenyl)pyrrolidin-1-yl)imidazo[1,2-a]pyridine-3-carboxamide] |
| ≤ 50 nM | CCN(C)S(=O)(=O)NC(=O)c1cnc2ccc(N3C[C@@H](F)C[C@@H]3c3cc(F)ccc3OCCF)cn12 [Example 57, N-(N-ethyl-N-methylsulfamoyl)-6-((2R,4S)-4-fluoro-2-(5-fluoro-2-(2-fluoroethoxy)phenyl)pyrrolidin-1-yl)imidazo[1,2-a]pyridine-3-carboxamide] |
| ≤ 50 nM | CCCN(C)S(=O)(=O)NC(=O)c1cnc2ccc(N3C[C@@H](F)C[C@@H]3c3cc(F)ccc3O[C@@H]3CCOC3)cn12 [Example 101, 6-((2R,4S)-4-fluoro-2-(5-fluoro-2-(((R)-tetrahydrofuran-3-yl)oxy)phenyl)pyrrolidin-1-yl)-N—(N-methyl-N-propylsulfamoyl)imidazo[1,2-a]pyridine-3-carboxamide] |
| 50 to 100 nM | O=C(NC[C@H](O)CO)c1cnc2ccc(N3CCC[C@@H]3c3cc(F)ccc3F)cn12 [Example 25, 6-((R)-2-(2,5-difluorophenyl)pyrrolidin-1-yl)-N—((S)-2,3-dihydroxypropyl)imidazo[1,2-a]pyridine-3-carboxamide] |
| ≤ 50 nM | CN(CCF)S(=O)(=O)NC(=O)c1cnc2ccc(N3CCC[C@@H]3c3cc(F)ccc3F)cn12 [Example 38, (R)-6-(2-(2,5-difluorophenyl)pyrrolidin-1-yl)-N-(N-(2-fluoroethyl)-N-methylsulfamoyl)imidazo[1,2-a]pyridine-3-carboxamide] |
| ≤ 50 nM | Cc1nnc(N(C)S(=O)(=O)NC(=O)c2cnc3ccc(N4CCC[C@@H]4c4cc(F)ccc4OC4CCOCC4)cn23)s1 [Example 85, (R)-6-(2-(5-fluoro-2-((tetrahydro-2H-pyran-4-yl)oxy)phenyl)pyrrolidin-1-yl)-N—(N-methyl-N-(5-methyl-1,3,4-thiadiazol-2-yl)sulfamoyl)imidazo[1,2-a]pyridine-3-carboxamide] |
| 50 to 100 nM | CCCN(C)S(=O)(=O)NC(=O)c1cnc2ccc(N3CCC[C@@H]3c3cc(F)ccc3OC)cn12 [Example 53] |
| 50 to 100 nM | CCN(C)S(=O)(=O)NC(=O)c1cnc2ccc(N3CCC[C@@H]3c3cc(F)ccc3OC3CCOCC3)cn12 [Example 80, (R)—N—(N-ethyl-N-methylsulfamoyl)-6-(2-(5-fluoro-2-((tetrahydro-2H-pyran-4-yl)oxy)phenyl)pyrrolidin-1-yl)imidazo[1,2-a]pyridine-3-carboxamide] |
| ≤ 50 nM | O=C(c1cnc2ccc(N3CCCC3c3cc(F)ccc3F)cn12)N1CC(O)C1 (centres unmarked) [Example 4, (6-(2-(2,5-difluorophenyl)pyrrolidin-1-yl)imidazo[1,2-a]pyridin-3-yl)(3-hydroxyazetidin-1-yl)methanone] |
| ≤ 50 nM | Cc1ccc(N(C)S(=O)(=O)NC(=O)c2cnc3ccc(N4C[C@@H](F)C[C@@H]4c4cc(F)ccc4O[C@@H]4CCOC4)cn23)nn1 [Example 78, 6-((2R,4S)-4-fluoro-2-(5-fluoro-2-(((R)-tetrahydrofuran-3-yl)oxy)phenyl)pyrrolidin-1-yl)-N—(N-methyl-N-(6-methylpyridazin-3-yl)sulfamoyl)imidazo[1,2-a]pyridine-3-carboxamide] |
| ≤ 50 nM | CN(c1nccs1)S(=O)(=O)NC(=O)c1cnc2ccc(N3CCC[C@@H]3c3cc(F)ccc3OC3CCOCC3)cn12 [Example 81, (R)-6-(2-(5-fluoro-2-((tetrahydro-2H-pyran-4-yl)oxy)phenyl)pyrrolidin-1-yl)-N—(N-methyl-N-(thiazol-2-yl)sulfamoyl)imidazo[1,2-a]pyridine-3-carboxamide] |
| 50 to 100 nM | CN(c1ccn(C)n1)S(=O)(=O)NC(=O)c1cnc2ccc(N3CCC[C@@H]3c3cc(F)ccc3OC3CCOCC3)cn12 [Example 91, (R)-6-(2-(5-fluoro-2-((tetrahydro-2H-pyran-4-yl)oxy)phenyl)pyrrolidin-1-yl)-N—(N-methyl-N-(1-methyl-1H-pyrazol-3-yl)sulfamoyl)imidazo[1,2-a]pyridine-3-carboxamide] |
| ≤ 50 nM | CN(CCF)S(=O)(=O)NC(=O)c1cnc2ccc(N3C[C@@H](F)C[C@@H]3c3cc(F)ccc3OC3CCOCC3)cn12 [Example 99, 6-((2R,4S)-4-fluoro-2-(5-fluoro-2-((tetrahydro-2H-pyran-4-yl)oxy)phenyl)pyrrolidin-1-yl)-N—(N-(2-fluoroethyl)-N-methylsulfamoyl)imidazo[1,2-a]pyridine-3-carboxamide] |
| ≤ 50 nM | CCCN(C)S(=O)(=O)NC(=O)c1cnc2ccc(N3CCC[C@@H]3c3cc(F)ccc3O[C@@H]3CCOC3)cn12 [Example 107, 6-((R)-2-(5-fluoro-2-(((R)-tetrahydrofuran-3-yl)oxy)phenyl)pyrrolidin-1-yl)-N—(N-methyl-N-propylsulfamoyl)imidazo[1,2-a]pyridine-3-carboxamide] |
| ≤ 50 nM | CCN(CC)S(=O)(=O)NC(=O)c1cnc2ccc(N3C[C@@H](F)C[C@@H]3c3cc(F)ccc3O[C@@H]3CCOC3)cn12 [Example 74, N—(N,N-diethylsulfamoyl)-6-((2R,4S)-4-fluoro-2-(5-fluoro-2-(((R)-tetrahydrofuran-3-yl)oxy)phenyl)pyrrolidin-1-yl)imidazo[1,2-a]pyridine-3-carboxamide] |
| ≤ 50 nM | CN(CC(F)(F)F)S(=O)(=O)NC(=O)c1cnc2ccc(N3CCC[C@@H]3c3cc(F)ccc3F)cn12 [Example 41, (R)-6-(2-(2,5-difluorophenyl)pyrrolidin-1-yl)-N-(N-methyl-N-(2,2,2-trifluoroethyl)sulfamoyl)imidazo[1,2-a]pyridine-3-carboxamide] |
| ≤ 50 nM | Cc1ccc(N(C)S(=O)(=O)NC(=O)c2cnc3ccc(N4CCC[C@@H]4c4cc(F)ccc4OC4CCOCC4)cn23)nn1 [Example 87, (R)-6-(2-(5-fluoro-2-((tetrahydro-2H-pyran-4-yl)oxy)phenyl)pyrrolidin-1-yl)-N—(N-methyl-N-(6-methylpyridazin-3-yl)sulfamoyl)imidazo[1,2-a]pyridine-3-carboxamide] |
| ≤ 50 nM | O=C(Nc1ccc(F)cc1)c1cnc2ccc(N3CCCC3c3cc(F)ccc3F)cn12 (centres unmarked) [Example 1, 6-(2-(2,5-difluorophenyl)pyrrolidin-1-yl)-N-(4-fluorophenyl)imidazo[1,2-a]pyridine-3-carboxamide] |
| ≤ 50 nM | CN(C1CC1)S(=O)(=O)NC(=O)c1cnc2ccc(N3C[C@@H](F)C[C@@H]3c3cc(F)ccc3OC3CCOCC3)cn12 [Example 108, N—(N-cyclopropyl-N-methylsulfamoyl)-6-((2R,4S)-4-fluoro-2-(5-fluoro-2-((tetrahydro-2H-pyran-4-yl)oxy)phenyl)pyrrolidin-1-yl)imidazo[1,2-a]pyridine-3-carboxamide] |
| 50 to 100 nM | O=C(NS(=O)(=O)c1ccc(-n2cncn2)cc1)c1cnc2ccc(N3CCC[C@@H]3c3cc(F)ccc3F)cn12 [Example 35, (R)-N-((4-(1H-1,2,4-triazol-1-yl)phenyl)sulfonyl)-6-(2-(2,5-difluorophenyl)pyrrolidin-1-yl)imidazo[1,2-a]pyridine-3-carboxamide] |
| 50 to 100 nM | COCCN(C)S(=O)(=O)NC(=O)c1cnc2ccc(N3CCC[C@@H]3c3cc(F)ccc3OC3CCOCC3)cn12 [Example 82, (R)-6-(2-(5-fluoro-2-((tetrahydro-2H-pyran-4-yl)oxy)phenyl)pyrrolidin-1-yl)-N—(N-(2-methoxyethyl)-N-methylsulfamoyl)imidazo[1,2-a]pyridine-3-carboxamide] |
| 50 to 100 nM | CCN(CCF)S(=O)(=O)NC(=O)c1cnc2ccc(N3CCC[C@@H]3c3cc(F)ccc3F)cn12 [Example 40, (R)-6-(2-(2,5-difluorophenyl)pyrrolidin-1-yl)-N-(N-ethyl-N-(2-fluoroethyl)sulfamoyl)imidazo[1,2-a]pyridine-3-carboxamide] |
| ≤ 50 nM | O=C(c1cnc2ccc(N3CCCC3c3cc(F)ccc3F)cn12)N1CC[C@H](O)C1 (stereo partly drawn) [Example 3, (6-(2-(2,5-difluorophenyl)pyrrolidin-1-yl)imidazo[1,2-a]pyridin-3-yl)((S)-3-hydroxypyrrolidin-1-yl)methanone] |
| 100 to 500 nM | O=C(Nc1cnc2ccc(N3CCCC3c3cc(F)ccc3F)cn12)N1CC[C@H](O)C1 (some centres unmarked) [Example 2, (3 S)—N-(6-(2-(2,5-difluorophenyl)pyrrolidin-1-yl)imidazo[1,2-a]pyridin-3-yl)-3-hydroxypyrrolidine-1-carboxamide] |

Same assay, conditions: bin with mixed units (lower bound nM, upper bound μM), read-out: TrkA inhibitory activity in-vitro IC50

| IC50 | Structure (SMILES) |
| --- | --- |
| 500 to 1000 nM | CC1(O)CN(C(=O)c2cnc3ccc(N4CCC[C@@H]4c4cc(F)ccc4F)cn23)C1 [Example 26, (R)-(6-(2-(2,5-difluorophenyl)pyrrolidin-1-yl)imidazo[1,2-a]pyridin-3-yl)(3-hydroxy-3-methylazetidin-1-yl)methanone] |
| 500 to 1000 nM | O=C(NC12CC3CC(CC(O)(C3)C1)C2)c1cnc2ccc(N3CCC[C@@H]3c3cc(F)ccc3F)cn12 [Example 23, 6-((R)-2-(2,5-difluorophenyl)pyrrolidin-1-yl)-N-((1r,3S,5R,7S)-3-hydroxyadamantan-1-yl)imidazo[1,2-a]pyridine-3-carboxamide] |
